The source of these data is patent US10143666B2, “Small molecule inhibitors targeting CAG-repeat RNA toxicity in polyglutamine diseases” (The Chinese University of Hong Kong, priority 2015, dated 2018).

Series [1] concerns DsRedCAG0 control fly. The arrangement: species or system Drosophila. The conditions noted are these: in vivo. The source says:
The synthesis of DB213 was described in Marcheschi et al. (Scheme 1)^12, see FIG. 1. By using a MJD (one kind of polyQ diseases) Drosophila disease model, the inventors established an effective screening platform to test a series of synthesized small molecules for their activity to suppress polyQ-induced neurodegeneration. […] To test whether the compounds acted on CAG-repeat RNA level, another Drosophila model, DsRedCAG100^6, was employed. […] Therefore, DB213 was confirmed to modulate expanded CAG-repeat RNA-mediated toxicity in vivo.
Flies were raised at 21.5° C. on cornmeal medium supplemented with dry yeast. Pseudopupil assay was performed on 12 day-old adult flies as mentioned previously^18. Images were captured by SPOT Insight CCD camera controlled by the SPOT Advanced software (Diagnostic instruments Inc.). External eye assay was performed on 12 day-old adult flies by Olympus SZX-12 stereomicroscope. Eye images were captured using a SPOT Insight CCD camera (Diagnostic instruments Inc.).

For series [2], the system named is R6/2 Huntington's mice. Briefly: Neurological index scoring in R6/2 mice. In kind it is in vivo. The method, then: (§1) The body weights were measured daily.
The following 30 behaviors were evaluated: Head Tremor, Head Twitch, Head Bobbing, Head Searching, Body Tremor, Body Twitch, Tail Tremor, Tail Twitch, Straub Tail, Piloerection, Shallow Respiration, Flattened Body Posture, Swollen Face, Ptosis, Irritability, Seizure, Urine Staining, Lacrimation, Salivation, Limb Splay, Catalepsy, Abnormal Gait, Tip Toe Walking, Slow Careful Movements, Excessive Grooming, Circling, Sniffing, and Chewing. In addition to the above occurrences the chronic observational phase included excessive locomotor activity, loss of startle response, loss of righting reflex, dehydration and tail pinch. The assessment was performed as follows: A score of 0 was assigned for normal features (such as locomotor activity) or for the absence of abnormal features (such as absence of piloerection); a score of 1 was given when mild abnormalities were observed; and a score of 2-3 was given when severe abnormalities were observed. All of these features were scored from simple observation of the mice in their cage, except for the startle, tail pinch and righting reflexes which were direct manipulations. To test the startle reflex, a small hand clicker was used to generate a loud popping noise and the following behaviors were identified during this process: jumping, freezing, and rapid eye blinks. For the righting reflex, each mouse was then removed from its home cage and placed on its back allowing the mouse to correct itself. Tail pinch was tested by gently squeezing the end of the tail with forceps.

For series [3], the system named is R6/2 Huntington's mice. Briefly: Open field test in R6/2 mice. In kind it is in vivo. On the procedure:
as §1
Open field test was performed at baseline, and on day 7. The mice were brought to the experimental room for at least 1 h acclimation to the experimental room conditions prior to testing. Activity chambers (Med Associates Inc, St Albans, Vt.; 27×27×20.3 cm) were equipped with IR beams. Mice were placed in the center of the chamber and their behavior was recorded for 30 min in 5-minute bins. Quantitative analysis was performed on the following five dependent measures: total locomotion, locomotion in the center of the open field, rearing rate in the center, total rearing frequency and velocity. Animals were tested at low-stress conditions where the light was lowered to approximately 10-30 lux of red light.

The test system of series [4] is primary rat cortical neurons. Briefly: Cytotoxicity test on primary rat cortical neurons. In kind it is cell-based. The source says: To address the specificity of DB213 on expanded CAG-repeat RNA toxicity in vitro, another small molecule compound, C4G2, labeled as ligand 3 in the study^17, was employed.

With `CN(C)CCCNC(=N)c1ccc(C(=N)NCCCN(C)C)cc1.Cl.Cl.Cl.Cl` [DB213], the “Dominant toxic effect in control fly” value in series [1] is “did not show any dominant toxic effect”. In addition, in series [2] (i.n. 300 mg/kg, day 3, p<0.05), the “Mean neurological index score of all parameters vs vehicle” value is recorded as “significantly higher mean score”. The “Neurological index score, differences between treatment groups” value in series [2] (i.v. dosing) is “no differences in neurological index score”. In addition, the Neurological index score result in series [2] (intranasal dosing) is “increased neurological index score”. The “Movement activity in open field test” value in series [3] (day 7 post-dosing) is reported as “no effect on movement activity”. Also, the “Open field distance, rearings, distance in center, rearings in center or velocity, differences between treatment groups” value is recorded as “no differences” in series [3] (i.n. dosing, day 7) and “no differences” in series [3] (i.v. dosing, baseline or day 7). In addition, the “No observed cytotoxicity up to” value in series [4] (cellular toxicity) is given as “up to 12.8 μM”. Moreover, the “Concentration up to which viability of wild-type primary neurons was not compromised” value in series [4] (primary rat cortical neurons) was “up to 12,800 nM”.
